Test results taken from patent publication US20120065165A1, “COMPOSITIONS AND METHODS OF TREATING ENDOTHELIAL DISORDERS” (ARGINETIX, INC, priority 2008, published 2012).

How the values were obtained:
Format in all cases: in vivo, rat
[1] = system: aged Fisher rats; assay: Erectile function: intracavernous pressure after cavernous nerve stimulation in aged rats; settings: ABH 6 mg/kg in drinking water 28 days
Method: Aged (22-26 months) Fisher rats were given either ABH (6 mg/kg in their drinking water) or plain water for 28 days. Young (4-8 months) were given plain water for 28 days. Rats were then anesthetized and erectile function was evaluated as an indicator of vascular function, by measuring intra-cavernous pressure following electrical stimulation of the cavernous nerve using an electrode placed around the pelvic nerve which innervates the penis (Cama, et al., 2003 Biochemistry 42: 8445-8451). The change in intracavernosal pressure was measured via a catheter placed in the corpora cavernosa. A range of stimulation frequencies were used to measure relaxation effects (and consequentially vascular dependent erectile responses) over their entire functional range.

[2] = system: diabetic ZDF rats; assay: ABH plus PDE5 inhibitor in diabetic ZDF rats: erectile function and vasorelaxation (Example 8); settings: ABH alone
Method: The effects of ABH and PDE5 inhibitors, singly and in combination, in the ZDF model of type 2 diabetes are tested.
ZLC rats are maintained on a normal diet. […] Ten to twenty minutes prior to each in vivo vasorelaxation experiment, animals will receive a single intravenous dose of the PDE5 inhibitor, sildenafil citrate (Viagra; either 1 or 2 mg/kg iv) or vehicle alone. […] Peak intracavernous pressure, ICP/mean arterial pressure (MAP), and total ICP (area under the erectile curve) are determined in response to intra-cavernous administration of the endothelium-dependent vasodilator ACh, and in response to direct cavernous nerve stimulation. Animals will then be euthanized, and aortas and penile vascular tissues are collected. Biochemical (arginase, NO, eNOS, ROS) and functional (contraction and relaxation in organ baths) indicators of endothelial health are determined in aortic rings and cavernous strips.

[3] = system: diabetic ZDF rats; assay: Oral ABH in type 2 diabetic ZDF rats: vascular and erectile function (Example 7)
From the text: The effects of ABH in the ZDF rat model of type 2 diabetes after systemic in vivo administration is investigated as described below. […] Given the similarities in indicators of vascular dysfunction between aged rats and diabetic animals and humans with respect to elevated arginase and decreased NO the prediction is that orally-administered ABH will result in similar improvements in vascular and erectile function in the type 2 diabetic ZDF rats. […] ABH is hypothesized to inhibit pathologically elevated vascular arginase, restore normal eNOS coupling, and enhance both erectile and vascular endothelial function. […]
ZDF rats are made diabetic by feeding a high-fat diet, while a cohort of ZLC rats are fed a normal diet. […] Aortic PWV is calculated as the separation distance divided by the difference in arrival times of the rat's pulse, with respect to the R-peak of the electrocardiogram (ECG), reported in meters per second (m/s).
At the end of the 4 week treatment period, erectile function is determined in vivo. […] Erectile response to electrical field stimulation (neurogenic response) is measured by catheterizing the right crus, and connecting it to a pressure transducer to permit continuous measurement of intracavernosal pressure (ICP). […] The erectile response (ICP) to injections of […] is determined. ICP is monitored during ACh administration, and until it returns to baseline. […]

[4] = cavernous nerve stimulation, vs controls

N[C@@H](CCCCB(O)O)C(=O)O [ABH, 2(S)-Amino-6-boronohexanoic acid]
all penile hemodynamic parameters after CNS [1]: marked improvement
ratio of mean peak intracavernous pressure (ICP) to mean arterial pressure (MAP) [1, 4]: marked increase
total ICP (area under the erectile curve) [1, 4]: marked increase
erectile function [2]: some positive effects
vascular arginase activity and vascular ROS concentration ([3]; ABH orally four weeks, vs untreated diabetic ZDF rats): significant decreases
in vivo erectile function, pulse wave velocity and ex vivo vasorelaxation ([3]; ABH orally in drinking water four weeks, vs untreated ZDF rats): significant improvements
